Tested on: Rattus norvegicus
Assay: In vivo inhibition of aromatase in pregnant mare's serum gonadotrophin-stimulated ovarian aromatase rat model at 10 mg/kg, po relative to control
Format: functional

Compound | inhibition in vivo at 10 mg/kg [%]
N#Cc1ccc(N(Cc2ccc(OS(N)(=O)=O)c(Br)c2)n2cnnc2)cc1 | 82

Biological target: T1, Steryl-sulfatase (Homo sapiens, UniProt P08842)
T1 sequence (P08842 whole entry): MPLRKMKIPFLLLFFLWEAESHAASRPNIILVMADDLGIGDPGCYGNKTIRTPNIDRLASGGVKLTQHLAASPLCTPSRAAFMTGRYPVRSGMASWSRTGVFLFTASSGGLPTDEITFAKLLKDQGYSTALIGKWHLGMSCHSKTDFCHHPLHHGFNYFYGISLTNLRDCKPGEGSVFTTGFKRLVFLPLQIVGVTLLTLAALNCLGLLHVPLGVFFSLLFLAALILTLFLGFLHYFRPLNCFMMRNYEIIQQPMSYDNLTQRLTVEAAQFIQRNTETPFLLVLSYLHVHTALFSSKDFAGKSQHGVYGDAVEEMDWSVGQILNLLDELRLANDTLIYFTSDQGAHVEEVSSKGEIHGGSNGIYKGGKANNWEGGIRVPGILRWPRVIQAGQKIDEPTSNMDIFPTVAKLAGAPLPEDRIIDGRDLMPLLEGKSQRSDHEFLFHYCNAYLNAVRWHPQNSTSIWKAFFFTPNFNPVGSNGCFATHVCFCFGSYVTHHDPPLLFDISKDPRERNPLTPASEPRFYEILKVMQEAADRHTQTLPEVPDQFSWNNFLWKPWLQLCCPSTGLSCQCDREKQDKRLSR
Assay: Inhibition of estrone sulfatase in human JEG-3 cells using [3H]-estrone sulphate as substrate incubated for 1 hr by liquid scintillation counting method
Format: cell-based

Compound | IC50 [nM]
COc1ccc(C[C@]2(O)CC[C@H]3[C@@H]4CCc5cc(OS(N)(=O)=O)ccc5[C@H]4CC[C@@]32C)cc1 | 30
COc1ccc(C[C@]2(O)CC[C@H]3[C@@H]4CCc5cc(OS(N)(=O)=O)ccc5[C@H]4CC[C@@]32C)c(OC)c1OC | 30
Cc1ccc(C[C@]2(O)CC[C@H]3[C@@H]4CCc5cc(OS(N)(=O)=O)ccc5[C@H]4CC[C@@]32C)cc1C | 30
C[C@]12CC[C@@H]3c4ccc(OS(N)(=O)=O)cc4CC[C@H]3[C@@H]1CC[C@@]2(O)Cc1ccc(O)cc1 | 30
CC(C)c1ccc(C[C@]2(O)CC[C@H]3[C@@H]4CCc5cc(OS(N)(=O)=O)ccc5[C@H]4CC[C@@]32C)cc1 | 30
COc1cc(C[C@]2(O)CC[C@H]3[C@@H]4CCc5cc(OS(N)(=O)=O)ccc5[C@H]4CC[C@@]32C)cc(OC)c1 | 30
Cc1ccc(C[C@]2(O)CC[C@H]3[C@@H]4CCc5cc(OS(N)(=O)=O)ccc5[C@H]4CC[C@@]32C)cc1 | 30
C[C@]12CC[C@@H]3c4ccc(OS(N)(=O)=O)cc4CC[C@H]3[C@@H]1CC[C@@]2(O)Cc1ccc(OCc2ccccc2)cc1 | 30
C[C@]12CC[C@@H]3c4ccc(OS(N)(=O)=O)cc4CC[C@H]3[C@@H]1CC[C@@]2(O)Cc1cccc(Oc2ccccc2)c1 | 30
C[C@]12CC[C@@H]3c4ccc(OS(N)(=O)=O)cc4CC[C@H]3[C@@H]1CC[C@@]2(O)Cc1ccc(-c2ccccc2)cc1 | 30
COc1cccc(C[C@]2(O)CC[C@H]3[C@@H]4CCc5cc(OS(N)(=O)=O)ccc5[C@H]4CC[C@@]32C)c1 | 30
CC(C)(C)c1ccc(C[C@]2(O)CC[C@H]3[C@@H]4CCc5cc(OS(N)(=O)=O)ccc5[C@H]4CC[C@@]32C)cc1 | 30

Biological target: T1, Steryl-sulfatase
Assay: Inhibition of estrone sulfatase in human MCF7 cells using [3H]-estrone sulphate as substrate incubated for 30 mins by liquid scintillation counting method
Format: cell-based

Compound | IC50 [nM]
CCN(CC)CCOCC[C@H]1CC[C@H]2[C@@H]3[C@H](C)Cc4cc(OS(N)(=O)=O)ccc4[C@H]3CC[C@]12C | 100

Biological target: T1, Steryl-sulfatase
Assay: Inhibition of placental microsomal estrone sulfatase (unknown origin) using [6,7-3H]E1S as substrate incubated for 1 hr by scintillation spectrometric analysis

Compound | IC50 [nM]
C[C@]12CC[C@@H]3c4ccc(OS(N)(=O)=O)cc4CC[C@H]3[C@@H]1CCC2=O [EMATE] | 9.1

Biological target: T1, Steryl-sulfatase
Assay: Inhibition of human placental microsomal estrone sulfatase using [3H]E1S as substrate incubated for 30 mins

Compound | IC50 [nM]
C[C@]12CC[C@@H]3c4ccc(OS(N)(=O)=O)cc4CC[C@H]3[C@@H]1CC(=O)N(Cc1ccccc1)C2=O | 1
CSc1cc2c(cc1OS(N)(=O)=O)CC[C@@H]1[C@@H]2CC[C@@]2(C)[C@H]1CC[C@@]2(O)Cc1ccccc1 | 44
CSc1cc2c(cc1OS(N)(=O)=O)CC[C@@H]1[C@@H]2CC[C@]2(C)C(=O)CC[C@@H]12 | 44
CC(C)(C)c1ccc(CN2C(=O)C[C@H]3[C@@H]4CCc5cc(OS(N)(=O)=O)ccc5[C@H]4CC[C@]3(C)C2=O)cc1 | 1
C[C@]12CC[C@@H]3c4ccc(OS(N)(=O)=O)cc4CC[C@H]3[C@@H]1CC(=O)NC2=O | 1
CCCCCCN1C(=O)C[C@H]2[C@@H]3CCc4cc(OS(N)(=O)=O)ccc4[C@H]3CC[C@]2(C)C1=O | 1
C=CCN1C(=O)C[C@H]2[C@@H]3CCc4cc(OS(N)(=O)=O)ccc4[C@H]3CC[C@]2(C)C1=O | 1
CCCCN1C(=O)C[C@H]2[C@@H]3CCc4cc(OS(N)(=O)=O)ccc4[C@H]3CC[C@]2(C)C1=O | 1
CSc1cc2c(cc1OS(N)(=O)=O)CC[C@@H]1[C@@H]2CC[C@]2(C)CCC[C@@H]12 | 44
CSc1cc2c(cc1OS(N)(=O)=O)CC[C@@H]1[C@@H]2CC[C@@]2(C)[C@H]1CC[C@@]2(O)Cc1ccc(C(C)(C)C)cc1 | 44

Biological target: T1, Steryl-sulfatase
Assay: Inhibition of estrone sulfatase (unknown origin) transfected in HEK293 cells using [3H]E1S as substrate incubated for 2 hrs by liquid scintillation counting method
Format: cell-based

Compound | IC50 [nM]
C[C@]12CC[C@H]3[C@@H](CC=C4CC(OS(N)(=O)=O)CC[C@@]43C)[C@@H]1CC[C@@H]2C(O)Cc1ccccc1 (stereo partly drawn) | 400
CC(C)(C)c1ccc(CC(O)[C@H]2CC[C@H]3[C@@H]4CC=C5CC(OS(N)(=O)=O)CC[C@]5(C)[C@H]4CC[C@]23C)cc1 (stereo partly drawn) | 400
C[C@]12CC[C@@H]3c4ccc(O)cc4CC[C@H]3[C@@H]1CC[C@@]2(O)Cc1ccc(-c2ccccc2C(F)(F)F)cc1 | 21
CC(C)(C)c1ccc(C[C@]2(O)CC[C@H]3[C@@H]4CC=C5CC(OS(N)(=O)=O)CC[C@]5(C)[C@H]4CC[C@@]32C)cc1 (stereo partly drawn) | 14
C[C@]12CC[C@@H]3c4ccc(OS(N)(=O)=O)cc4CC[C@H]3[C@@H]1CC[C@@]2(O)Cc1ccccc1 | 1.4

Biological target: T1, Steryl-sulfatase
Assay: Inhibition of human placental estrone sulfatase expressed in HEK293 cells using [3H]E1S as substrate incubated for 2 hrs by liquid scintillation counting method
Format: cell-based

Compound | IC50 [nM]
C[C@]12CC[C@@H]3c4ccc(OS(N)(=O)=O)cc4CC[C@H]3[C@@H]1CCC2=O [EMATE] | 0.9

Biological target: T1, Steryl-sulfatase
Assay: Inhibition of estrone sulfatase in human JEG-3 cells using [3H]-estrone sulphate as substrate incubated for 4 hrs by liquid scintillation counting method
Format: cell-based

Compound | IC50 [nM]
C[C@]12CC[C@@H]3c4ccc(OS(N)(=O)=O)cc4CC[C@H]3[C@@H]1CCC2=O [EMATE] | 3.2

Biological target: T1, Steryl-sulfatase
Assay: Inhibition of human placental microsomal estrone sulfatase using 4-methylumbelliferyl sulfate as substrate incubated for 1 hr by fluorescence assay

Compound | IC50 [nM]
C[C@]12CC[C@@H]3c4ccc(OS(N)(=O)=O)cc4CC[C@H]3[C@@H]1CCC2=O [EMATE] | 60
